The source of these data is patent US20240269139A1, “COMPOUNDS FOR TARGETED PROTEIN DEGRADATION OF KINASES” (DANA-FARBER CANCER INSTITUTE, INC., priority 2020, published 2024).

Common to all, as to format: cell-based
Assay [1] addresses T1, protein kinases (human kinome) (Homo sapiens, UniProt O60285).
T1 sequence (O60285 1-661): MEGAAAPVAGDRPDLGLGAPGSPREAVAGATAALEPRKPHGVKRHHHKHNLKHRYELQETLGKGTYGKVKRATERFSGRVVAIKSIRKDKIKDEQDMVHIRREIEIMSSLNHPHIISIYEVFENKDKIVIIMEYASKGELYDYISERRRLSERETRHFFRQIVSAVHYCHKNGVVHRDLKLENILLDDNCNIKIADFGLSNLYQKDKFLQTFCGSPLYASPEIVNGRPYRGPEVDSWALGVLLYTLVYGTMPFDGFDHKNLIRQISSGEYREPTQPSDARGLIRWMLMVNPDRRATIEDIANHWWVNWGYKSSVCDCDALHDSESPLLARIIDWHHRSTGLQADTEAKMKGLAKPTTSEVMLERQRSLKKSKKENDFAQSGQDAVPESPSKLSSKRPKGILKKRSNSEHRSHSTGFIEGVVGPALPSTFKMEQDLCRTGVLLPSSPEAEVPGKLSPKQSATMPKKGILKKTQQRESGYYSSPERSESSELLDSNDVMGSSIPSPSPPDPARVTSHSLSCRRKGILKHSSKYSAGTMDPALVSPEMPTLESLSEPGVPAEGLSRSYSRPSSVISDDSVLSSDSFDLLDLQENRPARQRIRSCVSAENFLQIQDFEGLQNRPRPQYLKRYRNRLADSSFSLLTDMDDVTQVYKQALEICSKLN
As to conditions: NUAK1 (O60285).

The target of assay [2] is protein kinases (human kinome) (Homo sapiens, UniProt Q13164). The settings on record: MAPK7 (Q13164-1), experiment wp016, 1 uM.
In assay [3] the target is protein kinases (human kinome) (Homo sapiens, UniProt O14874). The settings on record: BCKDK (O14874), experiment wp160, 1 hr.
Assay [4] has as its target T2, protein kinases (human kinome) (Homo sapiens, UniProt Q8TD19).
T2 sequence (Q8TD19 1-979): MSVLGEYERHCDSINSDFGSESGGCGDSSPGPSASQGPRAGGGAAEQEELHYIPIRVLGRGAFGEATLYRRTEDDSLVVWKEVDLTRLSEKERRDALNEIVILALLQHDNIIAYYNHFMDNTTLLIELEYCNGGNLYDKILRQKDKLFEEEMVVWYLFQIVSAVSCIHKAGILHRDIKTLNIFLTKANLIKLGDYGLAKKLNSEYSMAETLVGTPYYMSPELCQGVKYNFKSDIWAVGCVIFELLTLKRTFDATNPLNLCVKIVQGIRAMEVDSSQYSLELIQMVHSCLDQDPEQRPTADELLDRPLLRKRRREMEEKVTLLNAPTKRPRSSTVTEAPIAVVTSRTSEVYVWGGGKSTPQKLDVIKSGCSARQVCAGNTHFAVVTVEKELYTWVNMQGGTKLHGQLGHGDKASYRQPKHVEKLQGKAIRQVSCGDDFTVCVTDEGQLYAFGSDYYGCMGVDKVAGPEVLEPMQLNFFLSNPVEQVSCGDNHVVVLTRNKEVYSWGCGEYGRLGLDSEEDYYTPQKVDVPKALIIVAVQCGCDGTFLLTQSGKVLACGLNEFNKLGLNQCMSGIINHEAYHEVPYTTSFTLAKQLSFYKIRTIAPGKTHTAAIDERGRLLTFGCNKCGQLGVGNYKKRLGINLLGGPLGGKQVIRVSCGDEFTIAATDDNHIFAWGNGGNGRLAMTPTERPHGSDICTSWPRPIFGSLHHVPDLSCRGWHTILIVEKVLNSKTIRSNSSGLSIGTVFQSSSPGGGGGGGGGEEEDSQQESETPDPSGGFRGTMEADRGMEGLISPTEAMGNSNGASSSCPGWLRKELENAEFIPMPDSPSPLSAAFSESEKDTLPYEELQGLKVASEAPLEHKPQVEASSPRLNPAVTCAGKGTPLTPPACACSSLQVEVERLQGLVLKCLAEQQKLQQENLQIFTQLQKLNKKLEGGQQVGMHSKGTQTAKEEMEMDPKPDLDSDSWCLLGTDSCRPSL
The settings on record: experiment wp146.

Setting [5] is: experiment wp076, direction down.
[6] abbreviates: experiment wp146, direction down.

Like-named read-outs stand apart in the source and are kept apart here.

protein kinases (human kinome) (Homo sapiens, UniProt Q13164), sequence (Q13164 whole entry): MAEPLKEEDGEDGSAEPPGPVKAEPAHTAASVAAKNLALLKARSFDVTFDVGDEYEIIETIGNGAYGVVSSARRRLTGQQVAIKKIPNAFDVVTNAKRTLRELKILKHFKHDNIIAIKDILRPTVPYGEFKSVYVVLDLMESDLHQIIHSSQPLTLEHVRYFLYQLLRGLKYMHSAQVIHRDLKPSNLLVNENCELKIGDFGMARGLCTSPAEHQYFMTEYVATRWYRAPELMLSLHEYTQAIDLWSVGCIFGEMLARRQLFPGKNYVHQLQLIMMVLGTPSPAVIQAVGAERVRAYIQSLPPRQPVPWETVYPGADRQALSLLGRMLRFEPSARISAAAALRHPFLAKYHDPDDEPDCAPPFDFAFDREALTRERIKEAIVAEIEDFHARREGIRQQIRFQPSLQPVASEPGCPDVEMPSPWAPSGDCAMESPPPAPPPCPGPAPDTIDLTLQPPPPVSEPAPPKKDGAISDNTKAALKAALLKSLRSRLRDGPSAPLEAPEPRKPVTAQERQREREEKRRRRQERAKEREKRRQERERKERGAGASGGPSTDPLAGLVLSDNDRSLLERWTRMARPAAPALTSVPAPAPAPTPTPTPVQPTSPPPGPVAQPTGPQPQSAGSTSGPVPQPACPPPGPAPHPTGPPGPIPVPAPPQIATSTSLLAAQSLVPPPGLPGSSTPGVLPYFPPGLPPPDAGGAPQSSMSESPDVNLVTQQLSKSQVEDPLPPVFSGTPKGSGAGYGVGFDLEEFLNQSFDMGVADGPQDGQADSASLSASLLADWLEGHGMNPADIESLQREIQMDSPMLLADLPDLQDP

As to `CCc1cnn2c(N(Cc3ccc(N)nc3)C(=O)CCOCCOCCOCCNC(=O)CNc3cccc4c3C(=O)N(C3CCC(=O)NC3=O)C4=O)cc(N3CCCC[C@H]3CCO)nc12` (some centres unmarked) [MFH.5.115.2], the logFC in assay [1] (experiment wp076) and in assay [1] (setting [5]) was −0.5264 each time.

As for `O=C1CCC(N2C(=O)c3cccc(NCCCCCCCCN4CCC(NC(=O)c5[nH]ncc5NC(=O)c5c(Cl)cccc5Cl)CC4)c3C2=O)C(=O)N1` (centres unmarked) [MFH.5.126.1], the logFC in assay [1] (experiment wp076) and in assay [1] (setting [5]) was −1.649 each time.

For `CC(C)S(=O)(=O)c1ccccc1Nc1nc(Nc2ccc(N3CCN(CCOCCNC(=O)CNc4cccc5c4C(=O)N(C4CCC(=O)NC4=O)C5=O)CC3)cc2)ncc1Cl` (centres unmarked) [SK.3.91], the logFC in assay [2] is −0.3924; in assay [2] (direction down), −0.3924; in assay [3] it was −0.8683; in assay [3] (direction down), −0.8683.

In the case of `NC(=O)c1c(F)cccc1Nc1nc(Nc2ccc(S(=O)(=O)NCCOCCOCCOCCOCCNc3cccc4c3C(=O)N(C3CCC(=O)NC3=O)C4=O)cc2)ncc1Br` (centres unmarked) [TMX.02.138], the logFC in assay [1] (experiment wp146) and in assay [1] (setting [6]) was −0.8254 throughout.

Turning to `Cc1cc(Nc2ncc(Br)c(Nc3cccc(F)c3C(N)=O)n2)ccc1S(=O)(=O)NCCOCCOCCOCCOCCNc1cccc2c1C(=O)N(C1CCC(=O)NC1=O)C2=O` (centres unmarked) [TMX.02.174], the logFC was −0.3626 in assay [4] (NEK9 (Q8TD19), direction down); −0.3626 in assay [4] (NEK9 Q8TD19); −1.361 in assay [1] (experiment wp146); −1.361 in assay [1] (setting [6]).
